Source: PubChem BioAssay (NCI)
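All cell lines were grown in 96-well plates and treated with compound for 48 hours. GI50: concentration for 50% inhibition of growth. Definition used: TGI = concentration required for complete inhibition of growth.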

Columns and labels:
Assay in all cases: NCI tumour cell line growth inhibition, 48 h
[1] = tested on: 786-0 renal
[2] = tested on: A498 renal
[3] = tested on: A549 NSCLC
[4] = tested on: ACHN renal
[5] = tested on: BT-549 breast
[6] = tested on: CAKI-1 renal
[7] = tested on: CCRF-CEM leukemia
[8] = tested on: COLO 205 colon
[9] = tested on: EKVX NSCLC
[10] = tested on: HCC-2998 colon
[11] = tested on: HCT-116 colon
[12] = tested on: HCT-15 colon
[13] = tested on: HL-60(TB) leukemia
[14] = tested on: HOP-62 NSCLC
[15] = tested on: HS 578T breast
[16] = tested on: HT29 colon
[17] = tested on: IGROV1 ovarian
[18] = tested on: K-562 leukemia
[19] = tested on: KM12 colon
[20] = tested on: LOX IMVI melanoma
[21] = tested on: M14 melanoma
[22] = tested on: MALME-3M melanoma
[23] = tested on: MCF7 breast
[24] = tested on: MDA-MB-231 breast
[25] = tested on: MDA-MB-435
[26] = tested on: MOLT-4 leukemia
[27] = tested on: NCI-H226 lung
[28] = tested on: NCI-H23 lung
[29] = tested on: NCI-H460 lung
[30] = tested on: NCI-H522 lung
[31] = tested on: OVCAR-3 ovarian
[32] = tested on: OVCAR-4 ovarian
[33] = tested on: OVCAR-5 ovarian
[34] = tested on: OVCAR-8 ovarian
[35] = tested on: PC-3 prostate
[36] = tested on: RPMI-8226 leukemia
[37] = tested on: SF-268 CNS
[38] = tested on: SF-295 CNS
[39] = tested on: SF-539 CNS
[40] = tested on: SK-MEL-2 melanoma
[41] = tested on: SK-MEL-28 melanoma
[42] = tested on: SK-MEL-5 melanoma
[43] = tested on: SK-OV-3 ovarian
[44] = tested on: SNB-19 CNS
[45] = tested on: SNB-75 CNS
[46] = tested on: SR leukemia
[47] = tested on: SW-620 colon
[48] = tested on: TK-10 renal
[49] = tested on: U251 CNS
[50] = tested on: UACC-257 melanoma
[51] = tested on: UACC-62 melanoma
[52] = tested on: DU-145 prostate
[53] = tested on: HOP-92 NSCLC
[54] = tested on: NCI/ADR-RES ovarian
[55] = tested on: SN12C renal
[56] = tested on: UO-31 renal

COc1ccc(C2C=C(c3ccc(C)cc3)N(c3ccc(OC)cc3[N+](=O)[O-])C3C(=O)OC(=O)C23)c(OC)c1 (stereo not drawn)
TGI [1]: > 100 µM
TGI [2]: > 100 µM
TGI [3]: > 100 µM
TGI [4]: 37.3 µM
TGI [5]: > 100 µM
TGI [6]: > 100 µM
TGI [7]: > 100 µM
TGI [8]: > 100 µM
TGI [9]: > 100 µM
TGI [10]: 79.4 µM
TGI [11]: > 100 µM
TGI [12]: > 100 µM
TGI [13]: > 100 µM
TGI [14]: > 100 µM
TGI [15]: 57.6 µM
TGI [16]: 86.4 µM
TGI [17]: 58.1 µM
TGI [18]: > 100 µM
TGI [19]: 22.7 µM
TGI [20]: 57 µM
TGI [21]: > 100 µM
TGI [22]: 38.5 µM
TGI [23]: > 100 µM
TGI [24]: > 100 µM
TGI [25]: > 100 µM
TGI [26]: 91.6 µM
TGI [27]: > 100 µM
TGI [28]: > 100 µM
TGI [29]: > 100 µM
TGI [30]: 53.7 µM
TGI [31]: 59 µM
TGI [32]: > 100 µM
TGI [33]: > 100 µM
TGI [34]: 39.5 µM
TGI [35]: > 100 µM
TGI [36]: 56.5 µM
TGI [37]: > 100 µM
TGI [38]: > 100 µM
TGI [39]: 53.2 µM
TGI [40]: > 100 µM
TGI [41]: > 100 µM
TGI [42]: > 100 µM
TGI [43]: > 100 µM
TGI [44]: > 100 µM
TGI [45]: 75.9 µM
TGI [46]: 61 µM
TGI [47]: 80.9 µM
TGI [48]: > 100 µM
TGI [49]: > 100 µM
TGI [50]: > 100 µM
TGI [51]: > 100 µM

COC(=O)N[C@H]1CCc2c(Cl)c(OC)c(OC)c(OC)c2-c2ccc(SC)c(=O)cc21
GI50 [1]: < 0.01 µM
TGI [1]: > 36.9 µM
GI50 [2]: < 0.01 µM
TGI [2]: < 0.01 µM
GI50 [3]: < 0.01 µM
TGI [3]: > 100 µM
GI50 [4]: < 0.01 µM
TGI [4]: 38.1 µM
GI50 [5]: < 0.01 µM
TGI [5]: 1.52 µM
GI50 [6]: < 0.0208 µM
TGI [6]: 48.3 µM
GI50 [7]: < 0.01 µM
TGI [7]: > 82.7 µM
GI50 [8]: < 0.01 µM
TGI [8]: 0.0303 µM
GI50 [52]: < 0.01 µM
TGI [52]: > 100 µM
GI50 [9]: < 0.01 µM
TGI [9]: 96.9 µM
GI50 [10]: < 0.01 µM
GI50 [11]: < 0.01 µM
GI50 [12]: < 0.01 µM
TGI [12]: > 43.9 µM
GI50 [13]: < 0.01 µM
TGI [13]: < 0.0127 µM
GI50 [14]: < 0.01 µM
TGI [14]: > 100 µM
GI50 [53]: 0.0199 µM
TGI [53]: 18.6 µM
GI50 [15]: < 0.01 µM
TGI [15]: > 100 µM
GI50 [16]: < 0.01 µM
TGI [16]: > 94.8 µM
GI50 [17]: < 0.01 µM
TGI [17]: > 52.5 µM
GI50 [18]: < 0.01 µM
TGI [18]: > 43.9 µM
GI50 [19]: < 0.01 µM
TGI [19]: 18.8 µM
GI50 [20]: < 0.01 µM
TGI [20]: 18.6 µM
GI50 [21]: < 0.01 µM
GI50 [22]: < 0.01 µM
TGI [22]: 30.5 µM
GI50 [23]: < 0.01 µM
TGI [23]: > 37.4 µM
GI50 [24]: < 0.01 µM
TGI [24]: 11.9 µM
GI50 [25]: < 0.01 µM
TGI [25]: < 0.01 µM
GI50 [26]: < 0.01 µM
TGI [26]: > 76.8 µM
GI50 [27]: < 0.01 µM
TGI [27]: 14.2 µM
GI50 [28]: < 0.01 µM
TGI [28]: 37 µM
GI50 [29]: < 0.01 µM
TGI [29]: 1.05 µM
GI50 [30]: < 0.01 µM
TGI [30]: 20.3 µM
GI50 [54]: 0.0155 µM
TGI [54]: 0.509 µM
GI50 [31]: < 0.01 µM
TGI [31]: < 0.01 µM
GI50 [32]: 0.0813 µM
TGI [32]: > 100 µM
GI50 [33]: < 0.01 µM
TGI [33]: > 94.8 µM
GI50 [34]: < 0.01 µM
TGI [34]: > 100 µM
GI50 [35]: < 0.01 µM
TGI [35]: > 70.3 µM
GI50 [36]: < 0.01 µM
TGI [36]: > 42.8 µM
GI50 [37]: < 0.01 µM
TGI [37]: > 100 µM
GI50 [39]: < 0.01 µM
TGI [39]: < 0.01 µM
GI50 [40]: 5.89 µM
TGI [40]: > 70.3 µM
GI50 [41]: 8.52 µM
TGI [41]: 46 µM
GI50 [42]: < 0.01 µM
TGI [42]: < 0.0127 µM
GI50 [43]: < 0.01 µM
TGI [43]: > 100 µM
GI50 [55]: < 0.01 µM
TGI [55]: > 43.9 µM
GI50 [44]: < 0.01 µM
TGI [44]: > 100 µM
GI50 [45]: < 0.01 µM
TGI [45]: > 81.2 µM
GI50 [46]: < 0.01 µM
TGI [46]: > 66.6 µM
GI50 [47]: < 0.01 µM
TGI [47]: > 100 µM
GI50 [48]: 15.8 µM
TGI [48]: > 100 µM
GI50 [49]: < 0.01 µM
TGI [49]: > 40.5 µM
GI50 [50]: 24.9 µM
TGI [50]: > 100 µM
GI50 [51]: < 0.01 µM
TGI [51]: 20.1 µM
GI50 [56]: < 0.0215 µM
TGI [56]: 51.7 µM
